Measured values as given in patent US20100298141A1, “SUBSTITUTED PYRIDINE N-OXIDE HERBICIDES” (E. I. DU PONT DE NEMOURS AND COMPANY, priority 2007, published 2010).

Tests used:
Test in all cases: Test F preemergence test
Surinam grass = format: in vivo, Brachiaria decumbens; settings: scale 0 to 100
How it was run: (§1)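 Compound in a non-phytotoxic solvent blend with surfactant is applied preemergence to planted seeds or postemergence to sugarcane plants. Plants and controls stay in the greenhouse 14 to 21 days before visual comparison.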

large crabgrass = format: in vivo, Digitaria sanguinalis; settings: scale 0 to 100
How it was run: as §1

kochia = format: in vivo, Kochia scoparia; settings: scale 0 to 100
How it was run: as §1

mustard = format: in vivo, Brassica nigra; settings: scale 0 to 100
How it was run: as §1

guineagrass = format: in vivo, Panicum maximum; settings: scale 0 to 100
How it was run: as §1

dallisgrass = format: in vivo, Paspalum dilatatum; settings: scale 0 to 100
How it was run: as §1

barnyardgrass = format: in vivo, Echinochloa crus-galli; settings: scale 0 to 100
How it was run: as §1

southern sandbur = format: in vivo, Cenchrus echinatus; settings: scale 0 to 100
How it was run: as §1

Italian ryegrass = format: in vivo, Lolium multiflorum; settings: scale 0 to 100
How it was run: as §1

common purslane = format: in vivo, Portulaca oleracea; settings: scale 0 to 100
How it was run: as §1

common groundsel = format: in vivo, Senecio vulgaris; settings: scale 0 to 100
How it was run: as §1

Virginia dayflower = format: in vivo, Commelina virginica; settings: Preemergence, scale 0 to 100
How it was run: as §1

annual bluegrass = format: in vivo, Poa annua; settings: scale 0 to 100
How it was run: as §1

quackgrass = format: in vivo, Elytrigia repens; settings: scale 0 to 100
How it was run: as §1

field bindweed = format: in vivo, Convolvulus arvensis; settings: scale 0 to 100
How it was run: as §1

common mallow = format: in vivo, Malva sylvestris; settings: Preemergence, scale 0 to 100
How it was run: as §1

In the case of `CC(c1c(C(F)(F)F)nn(C)c1OC(F)F)S(=O)(=O)c1cccc[n+]1[O-]` (stereo not shown) [Compound 5], the “Plant response rating, Surinam Grass” value (Surinam grass; 8 g ai/ha, preemergence) is reported as 0, the “Plant response rating, Surinam Grass” value (Surinam grass; 16 g ai/ha, preemergence) is reported as 80 and the “Surinam Grass plant response rating” value (Surinam grass; 62 g ai/ha, Preemergence) is reported as 100. For the same molecule, the “Plant response rating, Surinam Grass” value (Surinam grass; Preemergence, 31 g ai/ha) was 90, the “Plant response rating, Crabgrass, Large” value (large crabgrass; 8 g ai/ha, preemergence) was 10 and the “Crabgrass, Large plant response rating” value (large crabgrass; 62 g ai/ha, Preemergence) was 95. For the same molecule, the “Plant response rating, Crabgrass, Large” value (large crabgrass; Preemergence, 16 g ai/ha) was 80, the “Plant response rating, Crabgrass, Large” value (large crabgrass; Preemergence, 31 g ai/ha) was 85 and the “Plant response rating, Kochia” value (kochia; 8 g ai/ha, preemergence) was 0. For the same molecule, the “Kochia plant response rating” value (kochia; 62 g ai/ha, Preemergence) was 40, the “Plant response rating, Kochia” value (kochia; Preemergence, 16 g ai/ha) was 0 and the “Plant response rating, Kochia” value (kochia; Preemergence, 31 g ai/ha) was 0. For the same molecule, the “Plant response rating, Black Mustard” value (mustard; 8 g ai/ha, preemergence) was 0, the “Black Mustard plant response rating” value (mustard; 62 g ai/ha, Preemergence) was 85 and the “Plant response rating, Black Mustard” value (mustard; Preemergence, 16 g ai/ha) was 35. For the same molecule, the “Plant response rating, Black Mustard” value (mustard; Preemergence, 31 g ai/ha) was 75, the “Plant response rating, Guineagrass” value (guineagrass; 8 g ai/ha, preemergence) was 20 and the “Guineagrass plant response rating” value (guineagrass; 62 g ai/ha, Preemergence) was 100. The “Plant response rating, Guineagrass” value (guineagrass; Preemergence, 16 g ai/ha) was 100, the “Plant response rating, Guineagrass” value (guineagrass; Preemergence, 31 g ai/ha) was 100 and the “Plant response rating, Dallisgrass” value (dallisgrass; 8 g ai/ha, preemergence) was 0. For the same molecule, the “Dallisgrass plant response rating” value (dallisgrass; 62 g ai/ha, Preemergence) was 98, the “Plant response rating, Dallisgrass” value (dallisgrass; Preemergence, 16 g ai/ha) was 65 and the “Plant response rating, Dallisgrass” value (dallisgrass; Preemergence, 31 g ai/ha) was 75. The “Plant response rating, Barnyardgrass” value (barnyardgrass; 8 g ai/ha, preemergence) was 70, the “Barnyardgrass plant response rating” value (barnyardgrass; 62 g ai/ha, Preemergence) was 100 and the “Plant response rating, Barnyardgrass” value (barnyardgrass; Preemergence, 16 g ai/ha) was 75. The “Plant response rating, Barnyardgrass” value (barnyardgrass; Preemergence, 31 g ai/ha) was 98, the “Plant response rating, Sandbur” value (southern sandbur; 8 g ai/ha, preemergence) was 15 and the “Plant response rating, Sandbur” value (southern sandbur; 16 g ai/ha, preemergence) was 75. For the same molecule, the “Sandbur plant response rating” value (southern sandbur; 62 g ai/ha, Preemergence) was 100, the “Plant response rating, Sandbur” value (southern sandbur; Preemergence, 31 g ai/ha) was 100 and the “Plant response rating, Ryegrass, Italian” value (Italian ryegrass; 8 g ai/ha, preemergence) was 10. The “Ryegrass, Italian plant response rating” value (Italian ryegrass; 62 g ai/ha, Preemergence) was 75, the “Plant response rating, Ryegrass, Italian” value (Italian ryegrass; Preemergence, 16 g ai/ha) was 40 and the “Plant response rating, Ryegrass, Italian” value (Italian ryegrass; Preemergence, 31 g ai/ha) was 60. For the same molecule, the “Plant response rating, Purslane” value (common purslane; 8 g ai/ha, preemergence) was 0, the “Purslane plant response rating” value (common purslane; 62 g ai/ha, Preemergence) was 65 and the “Plant response rating, Purslane” value (common purslane; Preemergence, 16 g ai/ha) was 35. The “Plant response rating, Purslane” value (common purslane; Preemergence, 31 g ai/ha) was 50, the “Plant response rating, Groundsel” value (common groundsel; 8 g ai/ha, preemergence) was 100 and the “Groundsel plant response rating” value (common groundsel; 62 g ai/ha, Preemergence) was 100. The “Plant response rating, Groundsel” value (common groundsel; Preemergence, 16 g ai/ha) was 100, the “Plant response rating, Groundsel” value (common groundsel; Preemergence, 31 g ai/ha) was 100 and the “Dayflower plant response rating” value (Virginia dayflower; 62 g ai/ha) was 100. The “Plant response rating, Dayflower” value (Virginia dayflower; 16 g ai/ha) was 65, the “Plant response rating, Dayflower” value (Virginia dayflower; 31 g ai/ha) was 90 and the “Plant response rating, Bluegrass” value (annual bluegrass; 8 g ai/ha, preemergence) was 0. The “Bluegrass plant response rating” value (annual bluegrass; 62 g ai/ha, Preemergence) was 75, the “Plant response rating, Bluegrass” value (annual bluegrass; Preemergence, 16 g ai/ha) was 20 and the “Plant response rating, Bluegrass” value (annual bluegrass; Preemergence, 31 g ai/ha) was 75. For the same molecule, the “Plant response rating, Quackgrass” value (quackgrass; 8 g ai/ha, preemergence) was 10, the “Quackgrass plant response rating” value (quackgrass; 62 g ai/ha, Preemergence) was 85 and the “Plant response rating, Quackgrass” value (quackgrass; Preemergence, 16 g ai/ha) was 50. For the same molecule, the “Plant response rating, Quackgrass” value (quackgrass; Preemergence, 31 g ai/ha) was 70, the “Plant response rating, Field Bindweed” value (field bindweed; 8 g ai/ha, preemergence) was 0 and the “Field Bindweed plant response rating” value (field bindweed; 62 g ai/ha, Preemergence) was 0. For the same molecule, the “Plant response rating, Field Bindweed” value (field bindweed; Preemergence, 16 g ai/ha) was 0, the “Plant response rating, Field Bindweed” value (field bindweed; Preemergence, 31 g ai/ha) was 0 and the “Mallow plant response rating” value (common mallow; 62 g ai/ha) was 90. The “Plant response rating, Mallow” value (common mallow; 16 g ai/ha) was 25.
